Columns and labels:
[1] = test system: SW620 colorectal cancer cells; assay: Serum-free cell survival of SW620 cells (Hoescht staining); assay type: cell-based; details: Homo sapiens, SW-620, cysteine-reactive fragment 50 μM, 48 h, vs DMSO, average of n = 3/group, read-out: SW620 survival Ave
Experimental: (§1) Cell Culture. SW620 cells were purchased from ATCC. SW620 cells were grown in L-15 media with 10% fetal bovine serum (FBS) in ambient CO2. U2OS cells were grown in DMEM media supplemented with 10% FBS at 37° C. with 5% CO2.
(§2) Survival and Proliferation Assays. Cells were plated the evening before the experiment, and allowed to adhere overnight. For serum-free cell survival assays, cells were plated in media not containing FBS. For cell proliferation assays, cells were plated in regular media. For the chemical genetics screen, cells were treated with either DMSO or the cysteine-reactive fragment for 48 h and cell viability was assessed by Hoescht stain using our previously described methods

[2] = test system: SW620 colorectal cancer cells; assay: Cell proliferation of SW620 cells (Hoescht staining); assay type: cell-based; details: Homo sapiens, SW-620, cysteine-reactive fragment 50 μM, 48 h, vs DMSO, average of n = 3/group, read-out: SW620 proliferation Ave
Experimental: as §1, §2

Compound | viability at 50 µM [1] [%] | activity at 50 µM [2] [%]
C=CC(=O)NCc1ccc(OC)c(OC)c1 [DKM 2-110, N-(3,4-dimethoxybenzyl)acrylamide] | 112 | 95
CC(CCc1ccccc1)NC(=O)CCl (stereo not drawn) [DKM 2-76, 2-Chloro-N-(4-phenylbutan-2-yl)acetamide] | 44 | 50
C=CC(=O)N1CCC(C(=O)OCC)CC1 [DKM 2-120, Ethyl 1-acryloylpiperidine-4-carboxylate] | 102 | 96
C=CC(=O)N1CCN(c2ccccc2)CC1 [DKM 3-5, 1-(4-phenylpiperazin-1-yl)prop-2-en-1-one] | 59 | 82
C=CC(=O)Nc1ccc(F)cc1 [DKM 3-31, N-(4-fluorophenyl)acrylamide] | 65 | 99
C=CC(=O)N1CCN(C(=O)OCC)CC1 [DKM 2-39, Ethyl 4-acryloylpiperazine-1-carboxylate] | 93 | 110
C=CC(=O)NCc1ccc(OC)cc1 [DKM 2-33, N-(4-methoxybenzyl)acrylamide] | 92 | 115
C=CC(=O)Nc1cc(F)ccc1F [DKM 2-40, N-(2,5-difluorophenyl)acrylamide] | 36 | 98
C=CC(=O)Nc1ccc2c(c1)OCO2 [DKM 2-86, N-(benzo[d][1,3]dioxol-5-yl)acrylamide] | 109 | 102
C=CC(=O)NCCCC [DKM 2-102, N-butylacrylamide] | 124 | 133
C=CC(=O)NCc1ccc(Br)cc1 [DKM 2-43, N-(4-bromobenzyl)acrylamide] | 84 | 128
C=CC(=O)Nc1cccc2c1CCC2 [DKM 2-84, N-(2,3-dihydro-1H-inden-4-yl)acrylamide] | 74 | 84
CCCCCCCCCCNC(=O)CCl [DKM 2-72, 2-Chloro-N-decylacetamide] | 96 | 100
C=CC(=O)NC(c1ccccc1)(c1ccccc1)c1ccccc1 [DKM 3-41, N-tritylacrylamide] | 55 | 93
CCOC(=O)N1CCN(C(=O)CCl)CC1 [DKM 2-52, Ethyl 4-(2-chloroacetyl)piperazine-1-carboxylate] | 92 | 53
C=CC(=O)NCCOc1ccccc1OC [DKM 2-58, N-(2-(2-methoxyphenoxy)ethyl)acrylamide] | 98 | 116
C=CC(=O)NCc1ccccc1[N+](=O)[O-] [DKM 2-62, N-(2-nitrobenzyl)acrylamide] | 115 | 95
CCCN(C)C(=O)CCl [TRH 1-53, 2-Chloro-N-methyl-N-propylacetamide] | 69 | 72
C=CC(=O)NCC1CCCCC1 [DKM 3-13, N-(cyclohexylmethyl)acrylamide] | 77 | 94
C=CC(=O)N1CCC(c2ccccc2)CC1 [DKM 2-97, 1-(4-phenylpiperidin-1-yl)prop-2-en-1-one] | 106 | 96
C=CC(=O)N1CCN(C(=O)OC(C)(C)C)CC1 [DKM 2-111, tert-butyl 4-acryloylpiperazine-1-carboxylate] | 133 | 106
C=CC(=O)N(c1ccccc1)c1ccccc1 [DKM 3-70, N,N-diphenylacrylamide] | 57 | 53
C=CC(=O)N1CCCCC1CC (stereo not drawn) [TRH 1-27, 1-(2-ethylpiperidin-1-yl)prop-2-en-1-one] | 144 | 125
C=CC(=O)NCCOc1ccccc1 [DKM 2-113, N-(2-phenoxyethyl)acrylamide] | 75 | 147

Source: patent US20200062696A1, “COMPOSITIONS AND METHODS FOR INHIBITING RETICULON 4” (THE REGENTS OF THE UNIVERSITY OF CALIFORNIA, priority 2017, published 2020)
